Measurements: patent US9458437B2, “Neuroprotective peptides that inhibit interaction between palmitoyl acyl transferase zinc-finger DHHC type containing 17 (zD17) and c-jun N-terminal kinase (JNK)” (The University of British Columbia, priority 2011, dated 2016)

Legend:
[1] = system: middle cerebral artery occlusion (MCAo); test: transient MCAo in SD rats, neurological scores; format: in vivo, Sprague-Dawley rat
Experimental: Adult male Sprague-Dawley (SD) rats weighing 250-290 g were employed for transient middle cerebral artery occlusion. Rats were anaesthetized with 5% isofluorane and maintained with 2% isofluorane in 70% N2O and 30% O2 using a face mask. 5 mg/kg ketoprofen was given pre-surgery to block pain. Rectal temperature was maintained at 37° C. during surgery with a homeothermic blanket system (Harvard Apparatus™, Holliston, Mass.). The scalp was incised at the midline and the skull was exposed. The skull was thinned with a dental drill at a region ipsilateral to the expected ischemia zone (2 mm posterior and 5 mm lateral from the bregma). […]
Peptides were synthesized by PepMetric Technologies™ or GL Biochem™ (Shanghai, China). […] Injections of NIMoEscr and NIMoEsh were made, brain damage was assessed and functional evaluations performed in a double-blind manner To examine the delivery of the peptide into the brain, 5 mg/kg FITC-labelled NIMoE or only saline was intravenously injected 1 h before perfusion. […] After rapid freezing in Tissue-Tek™ embedding medium (Sakura™, Torrance, Calif.) on dry ice, 20 μm sections were cut on a cryostat (Leica™ CM3050, Ontario, Canada) and examined for FITC fluorescence by a laser microscopy (Zeiss™, Axiovert 200). […]

[2] = target: zD17-JNK3 interaction (Rattus norvegicus, UniProt P49187); test: zD17-JNK3 interaction in the injured hemisphere after MCAo; format: in vivo, Sprague-Dawley rat; parameters: Lysates of rat brain tissues were precleaned with IgG and protein A-beads; from tissue; host or cells: brain (injured left hemisphere) of adult male Sprague-Dawley rats; conditions: single intravenous injection 30 min before MCAo
Experimental: The protocols for protein extraction have been described previously (Yang et al., 2009). For co-immunoprecipitation, cultured cells were washed with ice-cold PBS followed by incubation with 0.5 ml Gentle Lysis Buffer (GLB) containing 25 mM Tris-HCl (pH 7.4), 2 mM EDTA, 1 mM EGTA, 10 mM NaCl, 0.5% Triton X-100 and 10% Glycerol supplemented with the Complete Protease Inhibitor Tablets (Roche Applied Science™, Indianapolis, Ind., USA) and 1 mM PMSF. Total protein concentration was determined with the BioRad™ Protein Assay kit. […] Immunoprecipitates were washed three times with GLB buffer; boiled in 2× loading buffer with 1 mM dithiothreitol (DTT) for 3 min; and analyzed with SDS-PAGE as described previously (Yang et al., 2009). The relative intensities of the bands on immunoblots were analyzed and quantified using Image J™ (NIH). […]
Peptides were synthesized by PepMetric Technologies™ or GL Biochem™ (Shanghai, China). […] Injections of NIMoEscr and NIMoEsh were made, brain damage was assessed and functional evaluations performed in a double-blind manner To examine the delivery of the peptide into the brain, 5 mg/kg FITC-labelled NIMoE or only saline was intravenously injected 1 h before perfusion. […]

[3] = target: T1, zD17-JNK2 interaction (Rattus norvegicus, UniProt P49186); test: co-immunoprecipitation of zD17 with JNK2 in neuronal cultures; format: cell-based; conditions: NMDA
T1 construct: endogenous in cells; host or cells: primary cortical neurons of embryonic Wistar rat
Experimental: All animal experiments were approved by the Animal Care Committee of the University of British Columbia. Primary cortical cultures were prepared from Wistar rat (UBC Animal Care Centre, Vancouver, BC, Canada) brains at embryonic days 18-19. Cultures were maintained in Neurobasal medium supplemented with B27 and 0.5 mM glutamax (Invitrogen™) as described previously (Yang et al., 2009).
The protocols for protein extraction have been described previously (Yang et al., 2009). For co-immunoprecipitation, cultured cells were washed with ice-cold PBS followed by incubation with 0.5 ml Gentle Lysis Buffer (GLB) containing 25 mM Tris-HCl (pH 7.4), 2 mM EDTA, 1 mM EGTA, 10 mM NaCl, 0.5% Triton X-100 and 10% Glycerol supplemented with the Complete Protease Inhibitor Tablets (Roche Applied Science™, Indianapolis, Ind., USA) and 1 mM PMSF. Total protein concentration was determined with the BioRad™ Protein Assay kit. Lysates were first precleaned by incubating with Protein A-Sepharose beads (Roche Applied Science™) for 1 h at 4° C., followed by incubation with indicated antibodies (>16 h at 4° C.) and protein A Sepharose bead (2 h at 4° C.). Lysates of rat brain tissues were precleaned with IgG and protein A-beads. Immunoprecipitates were washed three times with GLB buffer; boiled in 2× loading buffer with 1 mM dithiothreitol (DTT) for 3 min; and analyzed with SDS-PAGE as described previously (Yang et al., 2009). The relative intensities of the bands on immunoblots were analyzed and quantified using Image J™ (NIH).

Sequence of zD17-JNK3 interaction (P49187 whole entry): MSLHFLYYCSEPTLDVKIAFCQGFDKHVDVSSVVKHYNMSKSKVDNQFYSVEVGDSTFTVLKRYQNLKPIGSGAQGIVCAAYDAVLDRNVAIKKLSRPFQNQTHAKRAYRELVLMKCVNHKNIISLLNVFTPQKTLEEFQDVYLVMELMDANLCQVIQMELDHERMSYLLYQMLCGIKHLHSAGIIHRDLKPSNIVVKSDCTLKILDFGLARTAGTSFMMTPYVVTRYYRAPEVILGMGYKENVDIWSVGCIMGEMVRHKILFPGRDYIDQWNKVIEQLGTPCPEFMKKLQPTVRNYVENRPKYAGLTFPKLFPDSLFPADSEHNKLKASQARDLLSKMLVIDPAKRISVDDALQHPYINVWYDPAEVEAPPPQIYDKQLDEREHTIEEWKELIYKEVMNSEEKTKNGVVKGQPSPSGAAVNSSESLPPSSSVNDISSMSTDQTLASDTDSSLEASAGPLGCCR

Sequence	behavioural deficits evaluated with neurological scores ([1]; NIMoEsh administration, MCAo rats)	duration of improvement of behavioural performance ([1]; injected 2 h post-surgery, double-blinded)	enhancement of the zD17-JNK3 interaction after MCAo [2]	enhancement of the JNK2-zD17 interaction [3]
WAAYRTHSVD (listed as Homo sapiens) [NIMoEsh, shorter 10mer of NIMoE, primarily the loop region of motif-E (zD17 196-205)]	substantially reduced	persisted over 14 days	effectively attenuated	
MTPLMWAAYRTHSVDPTRLL (listed as Homo sapiens) [NIMoE, peptide comprising motif-E of zD17, fused to the cell-membrane transduction domain of HIV-1 Tat for cell experiments]				eliminated the enhancement
